Among the data in publication PMC12552596 (Nature Communications, 2025) are IC50 values, retold here.

This test has as its target T1, human glucose-6-phosphate transporter (G6PT) (Homo sapiens, UniProt O43826, W138F).
T1 sequence (O43826 1-429 W138F): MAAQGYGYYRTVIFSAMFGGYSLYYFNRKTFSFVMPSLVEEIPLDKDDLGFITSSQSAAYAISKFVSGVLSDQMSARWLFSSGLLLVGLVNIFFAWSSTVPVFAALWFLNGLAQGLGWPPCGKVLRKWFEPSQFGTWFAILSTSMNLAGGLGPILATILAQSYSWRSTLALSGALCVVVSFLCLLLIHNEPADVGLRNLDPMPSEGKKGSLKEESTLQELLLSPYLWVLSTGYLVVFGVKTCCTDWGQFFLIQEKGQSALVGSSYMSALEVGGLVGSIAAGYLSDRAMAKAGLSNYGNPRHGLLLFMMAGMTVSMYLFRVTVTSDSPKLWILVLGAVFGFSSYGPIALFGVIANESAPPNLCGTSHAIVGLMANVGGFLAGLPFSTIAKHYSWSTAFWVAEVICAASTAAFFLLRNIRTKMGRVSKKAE
T1 sequence (P35575 1-357 partner): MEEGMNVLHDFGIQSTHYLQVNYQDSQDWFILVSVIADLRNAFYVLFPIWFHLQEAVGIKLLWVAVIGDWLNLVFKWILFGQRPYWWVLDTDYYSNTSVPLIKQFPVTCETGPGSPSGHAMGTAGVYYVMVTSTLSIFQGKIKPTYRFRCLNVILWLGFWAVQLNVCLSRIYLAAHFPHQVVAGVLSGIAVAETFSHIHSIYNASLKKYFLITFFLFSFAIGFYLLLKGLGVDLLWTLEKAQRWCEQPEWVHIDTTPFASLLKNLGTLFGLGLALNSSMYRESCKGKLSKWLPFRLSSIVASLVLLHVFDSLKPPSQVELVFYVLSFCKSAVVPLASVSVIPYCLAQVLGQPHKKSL
It counts as cell-based.

`O=C(/C=C/c1ccc(O)c(O)c1)O[C@@H]1C[C@](O)(C(=O)O)C[C@@H](O)[C@H]1O` [CHA, chlorogenic acid] displayed an IC50 of 523 ± 210 µM.

By IC50 is commonly meant the concentration needed to halve the response being measured. A higher IC50 goes with a need for much substance.
